Where two headings read alike, the source gives them in different places.

The values below come from patent US8163509B2, “Biological markers predictive of anti-cancer response to insulin-like growth factor-1 receptor kinase inhibitors” (The Regents of the University of Colorado, A Body Corporate, priority 2008, dated 2012).

Common to all, as to assay: SRB proliferation assay, 72 h
(Sulforhodamine B stains cellular protein and so reports cell mass.)

One experiment has as its system Colo205 CRC cell line. The format is cell-based. The conditions noted are these: Homo sapiens, COLO 205. As for the experimental part:
(§1) FIG. 17: Results of cell proliferation assay on the panel of 27 CRC cell lines. Cell proliferation was evaluated by SRB following exposure to OSI-906 for 72 hours. Cells were plated at an optimized density in 96-well plates, incubated overnight at 37° C., and then exposed to a serial dilution of OSI-906. After 72 hours incubation, cells were fixed with trichloroacetic acid and an SRB was performed as described in materials and methods.
(§2) Cell Lines and Culture. […] human colon cancer cell lines, were obtained from American Type Culture Collection (Manassas, Va.). Cells were grown in RPMI medium supplemented with 10% fetal bovine serum, 1% non-essential amino acids, 1% penicillin/streptomycin and were maintained at 37° C. in an incubator under an atmosphere containing 5% CO2. The cells were routinely screened for the presence of mycoplasma (MycoAlert, Cambrex Bio Science, Baltimore, Md.) and were exposed to PQIP when they reached approximately 70% confluence.
(§3) The CRC cell lines were treated with a range of concentrations of PQIP (from 0.05-5 μM) for 72 hours.
(§4) Cell Lines and Culture: Twenty-seven human colon cancer cell lines, were obtained from American Type Culture Collection (Manassas, Va.). The GEO cells were a generous gift from Dr. Fortunato Ciardiello (Cattedra di Oncologia Medica, Dipartimento Medico-Chirurgico di Internistica Clinica e Sperimentale “F Magrassi e A Lanzara,” Seconda Università degli Studi di Napoli, Naples). All cells except GEO were grown in RPMI medium supplemented with 10% fetal bovine serum, 1% non-essential amino acids, 1% penicillin/streptomycin and were maintained at 37° C. in an incubator under an atmosphere containing 5% CO2. GEO cells were grown in DMEM/F12 supplemented with 10% fetal bovine serum, 1% non-essential amino acids, 1% penicillin/streptomycin. The cells were routinely screened for the presence of mycoplasma (MycoAlert, Cambrex Bio Science, Baltimore, Md.) and were exposed to OSI-906 when they reached approximately 70% confluence. OSI-906 was provided by OSI Pharmaceuticals, (Boulder, Colo.) and prepared as a 10 mM stock solution in DMSO.
(§5) Assessment of responsiveness of a panel of CRC cell lines to OSI-906. In order to assess CRC cell lines with differential sensitivity to OSI-906, a panel of 27 CRC cell lines were exposed to increasing concentrations of OSI-906 and proliferation was measured using the SRB assay as described previously (Pitts, T M, et al. Mol Cancer Ther 2009; 8(2):342-9). As depicted in FIG. 17 there was a wide range of sensitivity of the CRC cell lines to OSI-906, the majority of the cell lines failing to reach an IC50 up to 5 μmol/L, but a clear distinction could be made between the cell lines that were sensitive and the cell lines that were resistant.

Another experiment relates to HCT8 CRC cell line. Type of experiment: cell-based. The conditions noted are these: Homo sapiens. As for the experimental part: as §1, §2, §3, §4, §5
In the next experiment the test system is LS1034 CRC cell line. Type of experiment: cell-based. The conditions noted are these: Homo sapiens. As for the experimental part: as §1, §2, §3, §4, §5
The test system of a further experiment is LS174T CRC cell line. The format is cell-based. The conditions noted are these: Homo sapiens. As for the experimental part:
as §1, §2, §3, §4, §5

The subject of another experiment is LS180 CRC cell line. The format is cell-based. The conditions noted are these: Homo sapiens. As for the experimental part: as §1, §2, §3, §4, §5
A further experiment has as its system SW1116 CRC cell line. Type of experiment: cell-based. The conditions noted are these: Homo sapiens. As for the experimental part: as §1, §2, §3, §4, §5
The subject of another experiment is SW403 CRC cell line. The format is cell-based. The following applies: Homo sapiens. As for the experimental part: as §1, §2, §3, §4, §5
The test system of a further experiment is SW837 CRC cell line. The format is cell-based. The conditions noted are these: Homo sapiens. As for the experimental part: as §1, §2, §3, §4, §5
The test system of the next experiment is HCT116 CRC cell line. Type of experiment: cell-based, human. The following applies: for IC50: Homo sapiens, HCT-116. As for the experimental part: Cell proliferation was evaluated by SRB following exposure to OSI-906 for 72 hours. Cells were plated at an optimized density in 96-well plates, incubated overnight at 37° C., and then exposed to a serial dilution of OSI-906. After 72 hours incubation, cells were fixed with trichloroacetic acid and an SRB was performed as described in materials and methods.
as §2
Multiple clones from the same transfection were pooled and grown under puromycin selection.
Cytotoxicity and Combination Effects: HT29, HCT116, RKO, and LS513 CRC cell lines were exposed to 0-10 nM SN-38 (7-Ethyl-10-hydroxy-camptothecin), 0-10 μM Oxaliplatin, or 0-50 μM 5-Fluorouracil (5-FU) for 72 hours. HT29, HCT116, RKO, and LS513 CRC cell lines were exposed to PQIP in combination with SN-38, Oxaliplatin or 5-FU. In all combinations, cells were seeded in 96-well flat bottomed plates and left overnight. PQIP and chemotherapy were both added for 72 hours. The results of the combinations were analyzed by the Chou and Talalay method with Calcusyn (Biosoft, Ferguson, Mo.).
as §3
To characterize the potential functionality that the selected genes may play in the sensitivity or resistance to PQIP, resistant and sensitive CRC cell lines were stably transfected with specific shRNA, treated with increasing concentrations of PQIP and proliferation assays performed to observe, if when manipulated, these genes alter responsiveness (i.e. the S or R phenotype). […] Both of these transfected cell lines were assayed for proliferation as described above.
Therefore, we investigated the effect of PQIP in combination with standard chemotherapy for CRC. […] Cells were exposed to PQIP and chemotherapy (SN38, oxaliplatin, or 5-Fluorouracil) concurrently for 72 h and combinations were assessed using the SRB assay.
Cell Lines and Culture: Twenty-seven human colon cancer cell lines, were obtained from American Type Culture Collection (Manassas, Va.). The GEO cells were a generous gift from Dr. Fortunato Ciardiello (Cattedra di Oncologia Medica, Dipartimento Medico-Chirurgico di Internistica Clinica e Sperimentale “F Magrassi e A Lanzara,” Seconda Università degli Studi di Napoli, Naples). All cells except GEO were grown in RPMI medium supplemented with 10% fetal bovine serum, 1% non-essential amino acids, 1% penicillin/streptomycin and were maintained at 37° C. in an incubator under an atmosphere containing 5% CO2.

Setting [1] is: 72 hours, 0.05-5 μM, read-out: IC50, growth inhibition by PQIP (SRB).
Setting [2] is: 72 hours, read-out: IC50, proliferation, OSI-906 (SRB).

With `CN1CCN([C@H]2C[C@@H](c3nc(-c4ccc5ccc(-c6ccccc6)nc5c4)c4c(N)nccn43)C2)CC1` [PQIP, cis-3-[3-(4-Methyl-piperazin-1-yl)-cyclobutyl]1-(2-phenyl-quinolin-7-yl)-imidazo[1,5-a]pyrazin-8-ylamine], the IC50 was < 0.5 µM with Colo205 CRC cell line (Colo205, 72 hours, 0.05-5 μM, read-out: IC50, growth inhibition by PQIP (SRB)); > 5 µM with HCT8 CRC cell line (HCT-8, 72 hours, 0.05-5 μM, read-out: IC50, growth inhibition by PQIP (SRB)); > 5 µM in the experiment with LS1034 CRC cell line (LS-1034, 72 hours, 0.05-5 μM, read-out: IC50, growth inhibition by PQIP (SRB)); > 5 µM with LS174T CRC cell line (setting [1]); > 5 µM in the experiment on LS180 CRC cell line (setting [1]); > 5 µM in the experiment with SW1116 CRC cell line (SW 1116, 72 hours, 0.05-5 μM, read-out: IC50, growth inhibition by PQIP (SRB)). The IC50 in the experiment with SW403 CRC cell line (SW-403, 72 hours, 0.05-5 μM, read-out: IC50, growth inhibition by PQIP (SRB)) is > 5 µM; in the experiment with SW837 CRC cell line (setting [1]), > 5 µM; in the experiment with HCT116 CRC cell line (HCT116, 72 hours, 0.05-5 μM, read-out: IC50, growth inhibition by PQIP (SRB)) it was > 5 µM. Moreover, the “combination index (CI) values, PQIP and chemotherapy” value in the experiment on HCT116 CRC cell line (HCT116, PQIP with SN38, oxaliplatin or 5-Fluorouracil concurrently 72 h, nearly all combinations, Chou and Talalay) is listed as 0.6-1.4. Also, the “shift in sensitivity to PQIP after shRNA knockdown” value with HCT116 CRC cell line (HCT116 transfected with MT2A shRNA vs parental or scramble shRNA control) is given as “left shift in sensitivity”; with HCT116 CRC cell line (HCT116 transfected with caldesmon shRNA vs parental or scramble shRNA control), “no left shift in sensitivity”.

In the case of `C[C@]1(O)C[C@@H](c2nc(-c3ccc4ccc(-c5ccccc5)nc4c3)c3c(N)nccn32)C1` [OSI-906, cis-3-[8-amino-1-(2-phenyl-quinolin-7-yl)-imidazo[1,5-a]pyrazin-3-yl]-1-methyl-cyclobutanol], the IC50 in the experiment with Colo205 CRC cell line (CoLo205, read-out: S/I/R to OSI-906) was ≤ 1.5 µM; in the experiment with Colo205 CRC cell line (Colo205, 72 hours, read-out: IC50, proliferation, OSI-906 (SRB)), ≤ 1.5 µM; in the experiment with HCT8 CRC cell line (HCT-8, 72 hours, read-out: IC50, proliferation, OSI-906 (SRB)), > 5 µM; with HCT8 CRC cell line (HCT-8, read-out: S/I/R to OSI-906), > 5 µM; in the experiment with LS1034 CRC cell line (LS-1034, 72 hours, read-out: IC50, proliferation, OSI-906 (SRB)), ≤ 1.5 µM; in the experiment with LS1034 CRC cell line (LS-1034, read-out: S/I/R to OSI-906), ≤ 1.5 µM. Further, the IC50 was > 5 µM in the experiment with LS174T CRC cell line (setting [2]); > 5 µM in the experiment on LS174T CRC cell line (read-out: S/I/R to OSI-906); > 5 µM in the experiment with LS180 CRC cell line (setting [2]); > 5 µM with LS180 CRC cell line (read-out: S/I/R to OSI-906); > 5 µM in the experiment on SW1116 CRC cell line (SW 1116, 72 hours, read-out: IC50, proliferation, OSI-906 (SRB)); > 5 µM in the experiment on SW1116 CRC cell line (SW 1116, read-out: S/I/R to OSI-906). Also, the IC50 with SW403 CRC cell line (SW-403, 72 hours, read-out: IC50, proliferation, OSI-906 (SRB)) is > 5 µM; in the experiment on SW403 CRC cell line (SW-403, read-out: S/I/R to OSI-906) it was > 5 µM; with SW837 CRC cell line (setting [2]) it was > 5 µM; in the experiment with SW837 CRC cell line (read-out: S/I/R to OSI-906) it was > 5 µM; with HCT116 CRC cell line (HCT116, 72 hours, read-out: IC50, proliferation, OSI-906 (SRB)) it was > 5 µM; in the experiment on HCT116 CRC cell line (HCT116, read-out: S/I/R to OSI-906), > 5 µM. In addition, the IC50 with HCT116 CRC cell line (HCT116 stably transfected with MT2A shRNA, read-out: IC50, proliferation, OSI-906 (SRB) after MT2A shRNA knockdown) came to 5 µM.
